Measurements from ChEMBL document CHEMBL3769365, “Discovery of the First Potent and Selective Inhibitors of Human dCTP Pyrophosphatase 1” (J Med Chem, 2016).
In brackets after ≈: the same amount, converted by molar mass. Each block holds one compound with its values, some of them ahead of it.

What was measured:
dCTP pyrophosphatase 1 = molecular target: T1, dCTP pyrophosphatase 1 (Homo sapiens, UniProt Q9H773); test: Inhibition of human recombinant full length dCTPase expressed in Escherichia coli BL21(DE3)pLysS using dCTP as substrate after 1 hr by HTS-adapted Malachite Green assay
T1 sequence (Q9H773 whole entry): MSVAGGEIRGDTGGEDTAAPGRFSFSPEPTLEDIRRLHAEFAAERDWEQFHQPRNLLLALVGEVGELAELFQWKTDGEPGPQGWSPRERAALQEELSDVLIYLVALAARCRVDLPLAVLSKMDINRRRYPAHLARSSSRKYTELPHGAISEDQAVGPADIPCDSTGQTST

[1] = Half life in mouse liver microsomes; format: ADME
Liver microsome = test: Half life in human liver microsomes; format: ADME
[2] = Aqueous solubility of the compound; format: physicochemical; settings: buffer
[3] = Fraction unbound in plasma (unknown origin); format: ADME, cell-free
[4] = Metabolic stability of plasma (unknown origin) assessed as compound remaining after 4 hrs; format: ADME, cell-free; settings: read-out: Stability
Cytochrome P450 2C19 = Cytochrome P450 2C19 (Homo sapiens, UniProt P33261); test: Inhibition of CYP2C19 (unknown origin) using mephenytoin as substrate preincubated for 10 mins followed by NADPH addition by LC/MS/MS analysis; format: ADME
Cytochrome P450 3A4 [5] = molecular target: T2, Cytochrome P450 3A4 (Homo sapiens, UniProt P08684); test: Inhibition of CYP3A4 (unknown origin) using testostrone as substrate preincubated for 10 mins followed by NADPH addition by LC/MS/MS analysis; format: ADME
Cytochrome P450 1A2 = molecular target: T3, Cytochrome P450 1A2 (Homo sapiens, UniProt P05177); test: Inhibition of CYP1A2 (unknown origin) using phenacetin as substrate preincubated for 10 mins followed by NADPH addition by LC/MS/MS analysis; format: ADME
T3 sequence (P05177 whole entry): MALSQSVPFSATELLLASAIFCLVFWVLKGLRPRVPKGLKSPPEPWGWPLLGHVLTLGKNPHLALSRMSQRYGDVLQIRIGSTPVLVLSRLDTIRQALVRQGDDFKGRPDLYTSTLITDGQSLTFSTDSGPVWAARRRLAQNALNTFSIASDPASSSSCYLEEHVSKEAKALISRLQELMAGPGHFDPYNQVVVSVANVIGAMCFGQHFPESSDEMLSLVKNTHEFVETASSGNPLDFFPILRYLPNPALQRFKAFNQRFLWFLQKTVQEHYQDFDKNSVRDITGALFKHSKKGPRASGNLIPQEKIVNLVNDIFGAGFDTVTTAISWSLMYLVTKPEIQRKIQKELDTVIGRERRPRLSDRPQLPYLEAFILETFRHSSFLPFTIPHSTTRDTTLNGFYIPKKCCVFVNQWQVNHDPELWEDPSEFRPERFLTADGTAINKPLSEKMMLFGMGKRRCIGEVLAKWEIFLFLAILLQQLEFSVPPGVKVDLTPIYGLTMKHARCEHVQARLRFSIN

Cytochrome P450 2D6 = Cytochrome P450 2D6 (Homo sapiens, UniProt P10635); test: Inhibition of CYP2D6 (unknown origin) using bufuralol as substrate preincubated for 10 mins followed by NADPH addition by LC/MS/MS analysis; format: ADME
Cytochrome P450 2C9 = Cytochrome P450 2C9 (Homo sapiens, UniProt P11712); test: Inhibition of CYP2C9 (unknown origin) using diclofenac as substrate preincubated for 10 mins followed by NADPH addition by LC/MS/MS analysis; format: ADME
[6] = Efflux ratio of apparent permeability of the compound; format: ADME
[7] = Apparent permeability of the compound from apical to basolateral side; format: physicochemical
Cytochrome P450 3A4 [8] = molecular target: T2, Cytochrome P450 3A4; test: Inhibition of CYP3A4 (unknown origin) using midazolam as substrate preincubated for 10 mins followed by NADPH addition by LC/MS/MS analysis; format: ADME
[9] = Photostability of compound at room temperature after 5 months by LC/MS analysis; format: physicochemical; settings: 3652.5 h
[10] = Mutagenicity in human HL60 cells assessed as 53BP1 foci formation at 2.5 uM after 24 hrs by immunofluorescence staining-based Zeiss LSM-780 confocal microscopy; format: toxicity, cell-based; settings: hl-60, 24 h
[11] = Mutagenicity in human HL60 cells assessed as gammaH2AX foci formation at 2.5 uM after 24 hrs by immunofluorescence staining-based Zeiss LSM-780 confocal microscopy; format: toxicity, cell-based; settings: hl-60, 24 h
[12] = Mutagenicity in human HL60 cells assessed as Chk1 phosphorylation at S345 by Western blot analysis; format: toxicity, cell-based; settings: hl-60
[13] = Mutagenicity in human HL60 cells assessed as caspase 3 cleavage by Western blot analysis; format: toxicity, cell-based; settings: hl-60

T2 sequence (P08684 whole entry): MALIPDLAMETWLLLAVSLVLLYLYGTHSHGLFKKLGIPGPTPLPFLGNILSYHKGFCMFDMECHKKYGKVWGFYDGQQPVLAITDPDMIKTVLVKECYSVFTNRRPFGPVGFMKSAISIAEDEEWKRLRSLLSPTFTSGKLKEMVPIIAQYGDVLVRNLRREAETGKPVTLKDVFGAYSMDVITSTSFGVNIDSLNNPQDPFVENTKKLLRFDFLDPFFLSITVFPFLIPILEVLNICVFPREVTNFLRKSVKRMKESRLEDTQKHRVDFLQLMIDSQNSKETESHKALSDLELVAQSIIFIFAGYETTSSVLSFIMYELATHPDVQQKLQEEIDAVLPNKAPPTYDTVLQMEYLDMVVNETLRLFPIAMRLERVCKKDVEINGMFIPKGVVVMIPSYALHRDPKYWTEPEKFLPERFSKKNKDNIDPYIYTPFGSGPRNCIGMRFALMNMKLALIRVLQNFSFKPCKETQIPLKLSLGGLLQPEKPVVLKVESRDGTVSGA
Chain of Cytochrome P450 2D6 (P10635 whole entry): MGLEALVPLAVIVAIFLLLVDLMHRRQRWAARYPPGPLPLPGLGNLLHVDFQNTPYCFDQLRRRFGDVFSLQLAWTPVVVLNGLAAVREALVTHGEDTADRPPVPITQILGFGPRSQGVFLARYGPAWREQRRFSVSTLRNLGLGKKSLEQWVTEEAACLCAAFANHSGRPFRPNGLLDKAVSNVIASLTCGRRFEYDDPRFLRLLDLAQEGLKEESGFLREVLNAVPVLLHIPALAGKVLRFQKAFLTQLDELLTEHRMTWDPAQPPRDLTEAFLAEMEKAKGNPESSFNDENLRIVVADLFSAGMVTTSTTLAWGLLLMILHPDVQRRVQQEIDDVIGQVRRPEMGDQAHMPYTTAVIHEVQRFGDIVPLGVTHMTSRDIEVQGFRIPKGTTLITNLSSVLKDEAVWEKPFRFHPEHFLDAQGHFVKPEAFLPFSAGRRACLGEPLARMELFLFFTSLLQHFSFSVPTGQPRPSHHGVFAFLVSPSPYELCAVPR
Chain of Cytochrome P450 2C19 (P33261 whole entry): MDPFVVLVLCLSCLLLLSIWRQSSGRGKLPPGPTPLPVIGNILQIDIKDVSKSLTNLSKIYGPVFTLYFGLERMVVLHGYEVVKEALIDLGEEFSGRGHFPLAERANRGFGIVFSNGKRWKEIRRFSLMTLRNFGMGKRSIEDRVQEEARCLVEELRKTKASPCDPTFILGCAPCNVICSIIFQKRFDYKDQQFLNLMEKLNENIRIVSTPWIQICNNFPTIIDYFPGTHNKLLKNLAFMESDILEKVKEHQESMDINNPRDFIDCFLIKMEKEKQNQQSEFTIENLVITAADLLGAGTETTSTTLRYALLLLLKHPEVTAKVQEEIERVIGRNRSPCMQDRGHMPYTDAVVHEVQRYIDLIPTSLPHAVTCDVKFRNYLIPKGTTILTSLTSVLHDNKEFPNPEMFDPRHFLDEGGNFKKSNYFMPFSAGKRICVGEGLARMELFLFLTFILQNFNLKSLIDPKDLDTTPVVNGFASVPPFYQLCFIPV
Chain of Cytochrome P450 2C9 (P11712 whole entry): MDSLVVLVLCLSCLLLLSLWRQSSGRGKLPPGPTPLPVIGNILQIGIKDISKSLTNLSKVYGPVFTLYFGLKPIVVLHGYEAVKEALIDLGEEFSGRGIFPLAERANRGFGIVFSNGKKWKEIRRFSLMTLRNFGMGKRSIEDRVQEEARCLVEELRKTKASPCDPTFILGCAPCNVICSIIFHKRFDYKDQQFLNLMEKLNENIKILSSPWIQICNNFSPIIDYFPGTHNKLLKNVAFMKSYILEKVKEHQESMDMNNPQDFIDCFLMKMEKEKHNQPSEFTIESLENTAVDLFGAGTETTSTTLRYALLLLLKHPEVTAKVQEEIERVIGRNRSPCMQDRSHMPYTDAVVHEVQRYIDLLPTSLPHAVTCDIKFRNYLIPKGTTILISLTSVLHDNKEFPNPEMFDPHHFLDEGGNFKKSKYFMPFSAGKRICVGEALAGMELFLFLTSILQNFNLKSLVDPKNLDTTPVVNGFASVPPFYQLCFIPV

IC50 (dCTP pyrophosphatase 1): > 100000 nM
Structure (SMILES): COc1ccc(Cn2cnc3ccccc32)cc1

IC50 (dCTP pyrophosphatase 1): 248 nM
Structure (SMILES): Cc1nc2cc(Cl)c(Cl)cc2n1Cc1ccc(B(O)O)cc1

IC50 (dCTP pyrophosphatase 1): 1450 nM
Structure (SMILES): COc1ccc(Cn2c(C)nc3c([N+](=O)[O-])cccc32)cc1

IC50 (dCTP pyrophosphatase 1): 73 nM
Structure (SMILES): Cc1nc2c([N+](=O)[O-])c(Cl)c(Cl)cc2n1Cc1ccc(C(=O)O)cc1

IC50 (dCTP pyrophosphatase 1): 49 nM
Structure (SMILES): Cc1nc2c([N+](=O)[O-])c(Cl)c(Cl)cc2n1Cc1ccccc1

IC50 (dCTP pyrophosphatase 1): 34 nM
Structure (SMILES): CC(=O)Oc1ccc(Cn2c(C)nc3c([N+](=O)[O-])c(Cl)c(Cl)cc32)cc1

IC50 (dCTP pyrophosphatase 1): 22000 nM
Structure (SMILES): COc1ccc(Cn2c(C)nc3cc(C)c(C)cc32)cc1

t1/2 [1]: 13 min
t1/2 (Liver microsome): 268 min
Structure (SMILES): O=[N+]([O-])c1c(Cl)c(Cl)cc2c1nc(C1CC1)n2Cc1ccc(B(O)O)cc1

IC50 (dCTP pyrophosphatase 1): 82 nM
Structure (SMILES): Cc1nc2c([N+](=O)[O-])c(Cl)c(Cl)cc2n1Cc1ccccc1B(O)O

IC50 (dCTP pyrophosphatase 1): 529 nM
Structure (SMILES): Cc1nc2c([N+](=O)[O-])c(F)c(F)cc2n1Cc1ccc(B(O)O)cc1

IC50 (dCTP pyrophosphatase 1): 133 nM
Structure (SMILES): Cc1nc2c([N+](=O)[O-])c(Cl)c(Cl)cc2n1Cc1ccc(C=O)cc1

t1/2 [1]: 7 min
IC50 (dCTP pyrophosphatase 1): 190 nM
t1/2 (Liver microsome): 6 min
Structure (SMILES): Cc1n[nH]c(C)c1CCn1c(C)nc2c([N+](=O)[O-])c(Cl)c(Cl)cc21

IC50 (dCTP pyrophosphatase 1): 12000 nM
Structure (SMILES): COc1ccc(Cn2c(C)nc3cc(Cl)c(Cl)cc32)cc1

IC50 (dCTP pyrophosphatase 1): 96 nM
Structure (SMILES): Cc1nc2c([N+](=O)[O-])c(Cl)c(Cl)cc2n1C(=O)c1ccccc1

IC50 (dCTP pyrophosphatase 1): 46 nM
Structure (SMILES): Cc1nc2c([N+](=O)[O-])c(Cl)c(Cl)cc2n1Cc1cccc(B(O)O)c1

IC50 (dCTP pyrophosphatase 1): > 100000 nM
Structure (SMILES): COc1ccc(Cn2cnc3cc(C)c(C)cc32)cc1

IC50 (dCTP pyrophosphatase 1): 331 nM
Structure (SMILES): Cc1nc2c([N+](=O)[O-])c(Cl)c(Cl)cc2n1Cc1ccc(-n2cccc2)cc1

t1/2 [1]: 22 min
IC50 (dCTP pyrophosphatase 1): 75 nM
t1/2 (Liver microsome): 38 min
Structure (SMILES): Cc1nc2c([N+](=O)[O-])c(Cl)c(Cl)cc2n1Cc1ccc(-n2cccn2)cc1

IC50 (dCTP pyrophosphatase 1): 165 nM
Structure (SMILES): Cc1nc2c([N+](=O)[O-])c(Cl)c(Cl)cc2n1Cc1ccc(C#N)cc1

IC50 (dCTP pyrophosphatase 1): > 100000 nM
Structure (SMILES): COc1ccc(Cn2c(C)nc3ccccc32)cc1

Structure (SMILES): Cc1nc2c([N+](=O)[O-])c(Cl)c(Cl)cc2n1Cc1ccc(Cl)nc1
IC50 (dCTP pyrophosphatase 1): 185 nM

IC50 (dCTP pyrophosphatase 1): 95 nM
Structure (SMILES): COC(=O)c1ccc(Cn2c(C)nc3c([N+](=O)[O-])c(Cl)c(Cl)cc32)cc1

IC50 (dCTP pyrophosphatase 1): 85 nM
Structure (SMILES): Cc1nc2c([N+](=O)[O-])c(Cl)c(Cl)cc2n1-c1ccccc1

IC50 (dCTP pyrophosphatase 1): 240 nM
Structure (SMILES): Cc1nc(Cn2c(C)nc3c([N+](=O)[O-])c(Cl)c(Cl)cc32)cs1

IC50 (dCTP pyrophosphatase 1): 21 nM
solubility [2]: 11 µM (≈ 3.87 µg/mL)
Fu [3]: 0.7%
remaining at 4 h [4]: 96%
Structure (SMILES): Cc1nc2c([N+](=O)[O-])c(Cl)c(Cl)cc2n1Cc1ccc(O)cc1

Structure (SMILES): Cc1nc2c([N+](=O)[O-])c(Cl)c(Cl)cc2n1Cc1ccc(B2OC(=O)CN(C)CC(=O)O2)cc1
IC50 (Cytochrome P450 2C19): 2930 nM
t1/2 [1]: 109 min
IC50 (Cytochrome P450 3A4 [5]): 21900 nM
IC50 (Cytochrome P450 1A2): 377000 nM
IC50 (dCTP pyrophosphatase 1): 47 nM
solubility [2]: > 100 µM
t1/2 (Liver microsome): 11 min
IC50 (Cytochrome P450 2D6): 16800 nM
IC50 (Cytochrome P450 2C9): 1720 nM
Ratio [6]: 1.51
Papp [7]: 8.66 ×10⁻⁶ cm/s
IC50 (Cytochrome P450 3A4 [8]): 28100 nM
Fu [3]: 0.8%
remaining at 4 h [4]: 86%

IC50 (dCTP pyrophosphatase 1): 205 nM
Structure (SMILES): Cc1nc2c([N+](=O)[O-])c(Cl)c(Cl)cc2n1CCc1ccc(B(O)O)cc1

IC50 (dCTP pyrophosphatase 1): 57 nM
Structure (SMILES): COc1ccc(Cn2c(C)nc3c([N+](=O)[O-])c(C)c(C)cc32)cc1

IC50 (dCTP pyrophosphatase 1): 250 nM
Structure (SMILES): Cc1cc2c(nc(C)n2C(C)c2ccccc2)c([N+](=O)[O-])c1C (centres undefined)

t1/2 [1]: 8 min
t1/2 (Liver microsome): 30 min
Structure (SMILES): COc1ccc(Cn2c(C)nc3c([N+](=O)[O-])c(Cl)c(Cl)cc32)cc1

t1/2 [1]: 197 min
Stability [9]: Stable
IC50 (dCTP pyrophosphatase 1): 46 nM
solubility [2]: 52 µM (≈ 19.8 µg/mL)
t1/2 (Liver microsome): 72 min
Fu [3]: 0.1%
remaining at 4 h [4]: 11%
Structure (SMILES): Cc1nc2c([N+](=O)[O-])c(Cl)c(Cl)cc2n1Cc1ccc(B(O)O)cc1
Activity [10]: Non-toxic
Activity [11]: Non-toxic
Activity [12]: Non-toxic
Activity [13]: Non-toxic

IC50 (dCTP pyrophosphatase 1): 19 nM
Structure (SMILES): Cc1ccc(Cn2c(C)nc3c([N+](=O)[O-])c(Cl)c(Cl)cc32)cc1
